In article PMC12540828, “Fexofenadine protects against osteoarthritis by targeting Smad2 and STAT1 to enhance anabolism and binding cPLA2 to inhibit catabolism” (Cell Death Discovery, 2025):

Experiments:
cPLA2 = biological target: T1, cPLA2 (Homo sapiens, UniProt P47712); assay: DARTS, Western blot; format: biochemical; details: chondrocyte lysate; protease digestion
T1 construct: gene PLA2G4A; endogenous, chondrocyte lysate, read by Western blot
T1 sequence (P47712 1-749): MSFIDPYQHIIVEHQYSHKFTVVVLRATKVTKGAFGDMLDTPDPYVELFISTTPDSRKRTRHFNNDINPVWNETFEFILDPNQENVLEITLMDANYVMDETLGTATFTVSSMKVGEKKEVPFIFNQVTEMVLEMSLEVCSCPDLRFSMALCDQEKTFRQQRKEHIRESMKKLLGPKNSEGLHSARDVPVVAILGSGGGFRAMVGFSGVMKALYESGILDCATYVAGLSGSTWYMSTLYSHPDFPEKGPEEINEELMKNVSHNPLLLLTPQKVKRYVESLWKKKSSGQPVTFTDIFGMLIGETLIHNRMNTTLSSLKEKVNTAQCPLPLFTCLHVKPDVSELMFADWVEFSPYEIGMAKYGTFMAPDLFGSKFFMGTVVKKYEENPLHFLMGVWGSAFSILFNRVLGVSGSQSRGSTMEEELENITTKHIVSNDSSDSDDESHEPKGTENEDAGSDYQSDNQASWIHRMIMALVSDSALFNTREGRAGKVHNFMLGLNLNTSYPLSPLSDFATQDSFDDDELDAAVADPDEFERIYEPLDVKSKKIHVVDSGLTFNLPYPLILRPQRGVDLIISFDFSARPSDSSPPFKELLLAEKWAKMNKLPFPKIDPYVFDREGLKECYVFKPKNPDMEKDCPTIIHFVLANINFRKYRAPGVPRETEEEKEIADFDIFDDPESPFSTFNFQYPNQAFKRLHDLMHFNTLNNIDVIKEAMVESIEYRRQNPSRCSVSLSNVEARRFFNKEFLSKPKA

[1] = biological target: T2, STAT1 (endogenous, human chondrocytes) (Homo sapiens, UniProt P42224); assay: CETSA, Western blot; format: biochemical; details: FFD 10 μM
T2 construct: endogenous, read by Western blot
T2 sequence (P42224 2-750): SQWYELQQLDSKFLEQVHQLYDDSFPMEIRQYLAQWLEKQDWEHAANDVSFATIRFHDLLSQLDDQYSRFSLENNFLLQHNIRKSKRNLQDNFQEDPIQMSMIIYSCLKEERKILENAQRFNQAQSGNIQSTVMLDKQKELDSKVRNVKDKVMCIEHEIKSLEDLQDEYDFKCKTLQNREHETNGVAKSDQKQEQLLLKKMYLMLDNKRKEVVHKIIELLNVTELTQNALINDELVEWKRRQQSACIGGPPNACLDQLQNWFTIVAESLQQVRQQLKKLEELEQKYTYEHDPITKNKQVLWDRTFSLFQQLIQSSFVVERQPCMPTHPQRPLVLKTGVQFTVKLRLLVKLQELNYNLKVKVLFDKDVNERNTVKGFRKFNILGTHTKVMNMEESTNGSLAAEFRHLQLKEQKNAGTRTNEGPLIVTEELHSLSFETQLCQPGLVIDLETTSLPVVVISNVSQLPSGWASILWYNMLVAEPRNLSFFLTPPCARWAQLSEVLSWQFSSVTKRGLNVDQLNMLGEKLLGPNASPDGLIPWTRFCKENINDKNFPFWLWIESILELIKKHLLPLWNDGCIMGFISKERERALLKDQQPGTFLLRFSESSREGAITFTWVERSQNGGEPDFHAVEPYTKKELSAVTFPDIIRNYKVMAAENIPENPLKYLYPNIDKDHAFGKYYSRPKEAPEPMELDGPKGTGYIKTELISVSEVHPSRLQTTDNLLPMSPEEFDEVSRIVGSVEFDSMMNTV

[2] = biological target: T3, Smad2 (endogenous, human chondrocytes) (Homo sapiens, UniProt Q15796); assay: CETSA and DARTS, Western blot; format: biochemical; details: CETSA with FFD 10 μM
T3 construct: endogenous, read by Western blot

[3] = biological target: T4, STAT1 (purified recombinant, His-tagged) (Homo sapiens, UniProt P42224); assay: microscale thermophoresis; format: binding
T4 construct: purified recombinant, His-tagged, RED-NHS labelled
T4 sequence (P42224 2-750): T2 sequence (P42224 2-750)

T3 sequence (Q15796 2-467): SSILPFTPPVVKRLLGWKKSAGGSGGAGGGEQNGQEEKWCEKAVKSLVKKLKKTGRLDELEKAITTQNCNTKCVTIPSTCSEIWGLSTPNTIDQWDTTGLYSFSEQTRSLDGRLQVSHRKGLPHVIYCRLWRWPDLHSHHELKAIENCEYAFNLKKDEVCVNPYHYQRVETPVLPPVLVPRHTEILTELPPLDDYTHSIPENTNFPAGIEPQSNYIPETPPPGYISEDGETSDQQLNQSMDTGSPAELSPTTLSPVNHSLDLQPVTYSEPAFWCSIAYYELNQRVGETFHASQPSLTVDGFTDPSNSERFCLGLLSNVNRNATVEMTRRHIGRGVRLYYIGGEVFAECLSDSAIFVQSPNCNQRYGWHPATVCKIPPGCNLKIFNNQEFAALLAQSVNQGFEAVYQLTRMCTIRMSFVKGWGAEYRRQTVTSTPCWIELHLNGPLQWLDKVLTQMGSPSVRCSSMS

CC(C)(C(=O)O)c1ccc(C(O)CCCN2CCC(C(O)(c3ccccc3)c3ccccc3)CC2)cc1 (stereo not shown) [Fexofenadine]
DARTS, Western blot (cPLA2): cPLA2 remained undigested by the protease following incubation with FFD | Tm with FFD (control 50.49) [1]: 60.01 °C | CETSA and DARTS, Western blot [2]: DARTS and CETSA experiments subsequently confirmed the interaction between FFD and Smad2 | Kd [3]: 3 µM
